Values of other authors as cited in patent publication US7816298B2, “Hydroconversion processes employing multi-metallic catalysts and method for making thereof” (Chevron U. S. A. Inc., priority 2007, dated 2010).

Test system: rats
Details: as single oral dose to rats; values quoted for chelating agents (ligand L)

Q: For `O=CC(=O)O` [glyoxylic], which LD50 is on record?
A: 3000 mg/kg
